Data published in ChEMBL document CHEMBL1201862, “PubChem BioAssay data set” (2004).
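Values below derive from 48-hour exposures of cells grown in 96-well plates, with endpoints linearly interpolated between the two concentrations bracketing the appropriate inhibition level. GI50 marks 50% less growth.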 Calls of active or inactive are those of the source. Rule as the data show it: active = GI50 up to about 1.1 µM and inactive = higher.

Experiments:
Assay in all cases: NCI tumour cell line growth inhibition, 48 h
SK-MEL-5 = system: SK-MEL-5
RXF 631 = system: RXF 631
DLD-1 = system: DLD-1
NCI-H460 = system: NCI-H460
SK-MEL-28 = system: SK-MEL-28
SNB-19 = system: SNB-19
RXF 393 = system: RXF 393
A549 = system: A549
SK-OV-3 = system: SK-OV-3
CAKI-1 = system: CAKI-1
K562 = system: K562
A498 = system: A498
UACC-62 = system: UACC-62
KM-20L2 = system: KM-20L2
786-0 = system: 786-0
UO-31 = system: UO-31
SW-620 = system: SW-620
DMS-114 = system: DMS-114
UACC-257 = system: UACC-257
HOP-18 = system: HOP-18
IGROV-1 = system: IGROV-1
COLO 205 = system: COLO 205
LXFL 529 = system: LXFL 529
TK-10 = system: TK-10
U-251 = system: U-251
SF-268 = system: SF-268
OVCAR-4 = system: OVCAR-4
ACHN = system: ACHN
HL-60 = system: HL-60
SR = system: SR
OVCAR-5 = system: OVCAR-5
SK-MEL-2 = system: SK-MEL-2
HOP-62 = system: HOP-62
SNB-75 = system: SNB-75
HOP-92 = system: HOP-92
NCI-H522 = system: NCI-H522
MOLT-4 = system: MOLT-4
RPMI-8226 = system: RPMI-8226
Malme-3M = system: Malme-3M
NCI-H23 = system: NCI-H23
SN12C = system: SN12C
CCRF-CEM = system: CCRF-CEM
NCI-H226 = system: NCI-H226
LOX IMVI = system: LOX IMVI
EKVX = system: EKVX
HCT-116 = system: HCT-116
SNB-78 = system: SNB-78
DMS-273 = system: DMS-273
OVCAR-8 = system: OVCAR-8
HT-29 = system: HT-29
XF498 = system: XF498
M14 = system: M14
KM12 = system: KM12
OVCAR-3 = system: OVCAR-3
HCT-15 = system: HCT-15
M19-MEL = system: M19-MEL
SF-295 = system: SF-295
SF-539 = system: SF-539

`CN(c1ccccc1)c1cc2ccccc2nn1` was tested. Which GI50 (SK-MEL-5) did it give?
Its GI50 is 43.2 µM (inactive).

And the GI50 (RXF 631)?
The GI50 was 34.1 µM (inactive).

What about the GI50 (DLD-1) of the same compound?
Its GI50 is > 100 µM (inactive).

And the GI50 (NCI-H460)?
Its GI50 is > 100 µM (inactive).

What about the GI50 (SK-MEL-28) of the same compound?
Its GI50 is > 100 µM (inactive).

What about the GI50 (SNB-19) of the same compound?
Its GI50 is > 100 µM (inactive).

And the GI50 (RXF 393)?
Its GI50 is > 100 µM (inactive).

What about the GI50 (A549) of the same compound?
The GI50 was > 100 µM (inactive).

And the GI50 (SK-OV-3)?
Its GI50 is > 100 µM (inactive).

What about the GI50 (CAKI-1) of the same compound?
Its GI50 is > 100 µM (inactive).

And the GI50 (K562)?
Its GI50 is 89.7 µM (inactive).

What about the GI50 (A498) of the same compound?
Its GI50 is > 100 µM (inactive).

What about the GI50 (UACC-62) of the same compound?
Its GI50 is > 100 µM (inactive).

And the GI50 (KM-20L2)?
The GI50 was > 100 µM (inactive).

And the GI50 (786-0)?
The GI50 was > 100 µM (inactive).

And the GI50 (UO-31)?
Its GI50 is 29.3 µM (inactive).

What about the GI50 (SW-620) of the same compound?
The GI50 was > 100 µM (inactive).

And the GI50 (DMS-114)?
The GI50 was 52.2 µM (inactive).

And the GI50 (UACC-257)?
Its GI50 is > 100 µM (inactive).

What about the GI50 (HOP-18) of the same compound?
Its GI50 is > 100 µM (inactive).

And the GI50 (IGROV-1)?
Its GI50 is > 100 µM (inactive).

And the GI50 (COLO 205)?
The GI50 was > 100 µM (inactive).

What about the GI50 (LXFL 529) of the same compound?
Its GI50 is 56.1 µM (inactive).

What about the GI50 (TK-10) of the same compound?
The GI50 was > 100 µM (inactive).

And the GI50 (U-251)?
The GI50 was 81.8 µM (inactive).

What about the GI50 (SF-268) of the same compound?
The GI50 was > 100 µM (inactive).

And the GI50 (OVCAR-4)?
Its GI50 is > 100 µM (inactive).

And the GI50 (ACHN)?
The GI50 was 74 µM (inactive).

And the GI50 (HL-60)?
The GI50 was 30.5 µM (inactive).

What about the GI50 (SR) of the same compound?
The GI50 was > 100 µM (inactive).

And the GI50 (OVCAR-5)?
Its GI50 is > 100 µM (inactive).

What about the GI50 (SK-MEL-2) of the same compound?
The GI50 was > 100 µM (inactive).

And the GI50 (HOP-62)?
Its GI50 is > 100 µM (inactive).

And the GI50 (SNB-75)?
Its GI50 is 64.3 µM (inactive).

And the GI50 (HOP-92)?
The GI50 was > 100 µM (inactive).

What about the GI50 (NCI-H522) of the same compound?
Its GI50 is 27.6 µM (inactive).

What about the GI50 (MOLT-4) of the same compound?
The GI50 was 52.7 µM (inactive).

What about the GI50 (RPMI-8226) of the same compound?
Its GI50 is 70 µM (inactive).

And the GI50 (Malme-3M)?
Its GI50 is 87.1 µM (inactive).

What about the GI50 (NCI-H23) of the same compound?
The GI50 was > 100 µM (inactive).

What about the GI50 (SN12C) of the same compound?
The GI50 was > 100 µM (inactive).

And the GI50 (CCRF-CEM)?
The GI50 was 47.1 µM (inactive).

What about the GI50 (NCI-H226) of the same compound?
Its GI50 is > 100 µM (inactive).

And the GI50 (LOX IMVI)?
Its GI50 is 84.5 µM (inactive).

And the GI50 (EKVX)?
The GI50 was 65.8 µM (inactive).

What about the GI50 (HCT-116) of the same compound?
The GI50 was > 100 µM (inactive).

And the GI50 (SNB-78)?
The GI50 was > 100 µM (inactive).

And the GI50 (DMS-273)?
The GI50 was > 100 µM (inactive).

What about the GI50 (OVCAR-8) of the same compound?
The GI50 was > 100 µM (inactive).

What about the GI50 (HT-29) of the same compound?
The GI50 was > 100 µM (inactive).

And the GI50 (XF498)?
The GI50 was 67 µM (inactive).

And the GI50 (M14)?
The GI50 was > 100 µM (inactive).

What about the GI50 (KM12) of the same compound?
The GI50 was > 100 µM (inactive).

And the GI50 (OVCAR-3)?
Its GI50 is 53.8 µM (inactive).

And the GI50 (HCT-15)?
Its GI50 is over 100 µM.

What about the GI50 (M19-MEL) of the same compound?
The GI50 was 59.2 µM (inactive).

And the GI50 (SF-295)?
Its GI50 is 67.9 µM (inactive).

And the GI50 (SF-539)?
The GI50 was > 100 µM (inactive).

With `NC(=O)n1ncc(Cl)c(Cl)c1=O` as the compound, how does the GI50 (SK-MEL-5) read?
The GI50 was > 100 µM (inactive).

What about the GI50 (RXF 631) of the same compound?
Its GI50 is > 100 µM (inactive).

What about the GI50 (DLD-1) of the same compound?
The GI50 was > 100 µM (inactive).

What about the GI50 (NCI-H460) of the same compound?
The GI50 was > 100 µM (inactive).

And the GI50 (SK-MEL-28)?
The GI50 was > 100 µM (inactive).

What about the GI50 (SNB-19) of the same compound?
Its GI50 is > 100 µM (inactive).

And the GI50 (A549)?
The GI50 was > 100 µM (inactive).

And the GI50 (SK-OV-3)?
Its GI50 is > 100 µM (inactive).

And the GI50 (CAKI-1)?
The GI50 was > 100 µM (inactive).

And the GI50 (K562)?
The GI50 was > 100 µM (inactive).

And the GI50 (A498)?
The GI50 was > 100 µM (inactive).

And the GI50 (UACC-62)?
The GI50 was > 100 µM (inactive).

And the GI50 (KM-20L2)?
The GI50 was > 100 µM (inactive).

And the GI50 (786-0)?
Its GI50 is > 100 µM (inactive).

What about the GI50 (UO-31) of the same compound?
Its GI50 is > 100 µM (inactive).

And the GI50 (SW-620)?
The GI50 was > 100 µM (inactive).

And the GI50 (DMS-114)?
Its GI50 is > 100 µM (inactive).

What about the GI50 (UACC-257) of the same compound?
The GI50 was > 100 µM (inactive).

And the GI50 (HOP-18)?
The GI50 was > 100 µM (inactive).

And the GI50 (IGROV-1)?
The GI50 was > 100 µM (inactive).

What about the GI50 (COLO 205) of the same compound?
Its GI50 is > 100 µM (inactive).

And the GI50 (LXFL 529)?
Its GI50 is > 100 µM (inactive).

What about the GI50 (TK-10) of the same compound?
Its GI50 is > 100 µM (inactive).

What about the GI50 (U-251) of the same compound?
The GI50 was > 100 µM (inactive).

What about the GI50 (SF-268) of the same compound?
The GI50 was > 100 µM (inactive).

And the GI50 (OVCAR-4)?
Its GI50 is > 100 µM (inactive).

And the GI50 (ACHN)?
The GI50 was > 100 µM (inactive).

And the GI50 (HL-60)?
The GI50 was 95.3 µM (inactive).

And the GI50 (OVCAR-5)?
Its GI50 is > 100 µM (inactive).

And the GI50 (SK-MEL-2)?
The GI50 was > 100 µM (inactive).

And the GI50 (HOP-62)?
The GI50 was > 100 µM (inactive).

What about the GI50 (SNB-75) of the same compound?
The GI50 was > 100 µM (inactive).

And the GI50 (HOP-92)?
The GI50 was > 100 µM (inactive).

And the GI50 (NCI-H522)?
Its GI50 is > 100 µM (inactive).

What about the GI50 (Malme-3M) of the same compound?
The GI50 was > 100 µM (inactive).

And the GI50 (NCI-H23)?
The GI50 was > 100 µM (inactive).

What about the GI50 (SN12C) of the same compound?
The GI50 was > 100 µM (inactive).

What about the GI50 (CCRF-CEM) of the same compound?
The GI50 was > 100 µM (inactive).

What about the GI50 (NCI-H226) of the same compound?
The GI50 was > 100 µM (inactive).

What about the GI50 (EKVX) of the same compound?
The GI50 was > 100 µM (inactive).

And the GI50 (HCT-116)?
The GI50 was > 100 µM (inactive).

And the GI50 (SNB-78)?
The GI50 was > 100 µM (inactive).

And the GI50 (DMS-273)?
The GI50 was > 100 µM (inactive).

What about the GI50 (OVCAR-8) of the same compound?
The GI50 was > 100 µM (inactive).

What about the GI50 (HT-29) of the same compound?
The GI50 was > 100 µM (inactive).

And the GI50 (XF498)?
The GI50 was > 100 µM (inactive).

And the GI50 (M14)?
The GI50 was > 100 µM (inactive).

What about the GI50 (KM12) of the same compound?
Its GI50 is > 100 µM (inactive).

What about the GI50 (OVCAR-3) of the same compound?
Its GI50 is > 100 µM (inactive).

And the GI50 (HCT-15)?
Its GI50 is over 100 µM.

And the GI50 (M19-MEL)?
Its GI50 is > 100 µM (inactive).

And the GI50 (SF-295)?
Its GI50 is > 100 µM (inactive).

What about the GI50 (SF-539) of the same compound?
Its GI50 is > 100 µM (inactive).
